# Measurements as given in patent publication US20220265629A1, “TREATMENT OF SYSTOLIC DYSFUNCTION AND HEART FAILURE WITH REDUCED EJECTION FRACTION WITH THE COMPOUND (R)-4-(1-((3-(DIFLUOROMETHYL)-1-METHYL-1H-PYRAZOL-4-YL)SULFONYL)-1-FLUOROETHYL)-N-(ISOXAZOL-3-YL)PIPERIDINE-1-CARBOXAMIDE” (MyoKardia, Inc., priority 2019, published 2022).
# Read-outs that look alike come from different tables or passages of the source.
# Assay: HFrEF study Part 1 (SAD Cohorts 1 and 2): plasma pharmacokinetics
# Type: in vivo, human
# Conditions: for Cmax / Tmax / AUC(0-t) / AUC(0-inf) / half-life: human, plasma, oral; for AUC(0-t): read-out: AUC0-24; for Plasma concentration, Mean / Plasma concentration, Median: pooled SAD Cohorts 1 and 2
# From the text: Part 1 was a randomized, crossover, DB, placebo-controlled, two-cohort, sequential ascending (oral) single-close study in ambulatory patients with heart failure. All patients received placebo and 2 or 3 active doses of Compound I. Each patient underwent sequential, single-close treatment events separated by no fewer than 5 days and no more than 14 days. Patients in Cohort 1 may also return for a fourth dosing period (open label) after the SRC reviews available data and recommends the close. Patients enrolled prior to the implementation of Amendment 1 may be offered the opportunity to return for the open-label period. Patients in Cohort 2 participated in 2 to 4 dosing periods, based on SRC decision. Patients were randomized to one of the different dosing sequences outlined in FIG. 5A. Multiple patients could be closed at the same time or during the same week depending on administrative issues, i.e., capacity and scheduling.
# For each dosing period, patients were admitted to the clinical site on Day −1. Patients were assessed for absence of exclusion criteria (e.g., new lab abnormalities and/or conditions that indicate the patient is clinically unstable). They received Compound I or placebo in the morning of Day 1 followed by serial PK and PD assessments, as well as serial safety assessments. Patients were discharged on Day 3 (i.e., ˜48 hours following Day 1 dosing). An additional outpatient plasma PK sample was taken on the morning of Day 4 at 72 hours postclose.
# Study medication consisted of Compound I 5 mg tablets, 25 mg tablets, 100 mg tablets, or matching placebo tablets. In Part 1 (SAD), Compound I or placebo was administered after an overnight fast (at least 6 hours), while in Part 2 (MAD), Compound I was administered after a 2 hour fast (Cohort A) or with food (Cohorts B, C, and D). The close was ingested with a minimum of 240 mL of water, but more water was ingested as needed. The entire close was administered over a period of up to 15 minutes. The time of close used to determine future assessments was the time the last tablet was taken. In the cohorts for Part 2 (MAD), a BID regimen was used.
# In Part 1 (SAD), patients fasted overnight (approximately 6 hours) through 4 hours postclose. With the exception of the water consumed with the close, water could be ingested until approximately 1 hour prior to dosing and approximately 1 hour after dosing. If closes were split, subjects fasted 6 hours prior to the first half-close. A light, low-fat snack could be consumed 2 hours after the first half-close and a fast continued through 2 hours after the second half-close.
# Eight patients with stable heart failure were enrolled and randomized to receive Compound I or placebo at a dose of 175, 350, 525, 450 (split close), or 550 mg (split close) in a crossover study design with four periods (A-D). All patients had heart failure with a nonischemic etiology and a mean Baseline ejection fraction of 43%. All eight subjects received placebo, 175 mg, and 350 mg (in random sequence) during Periods A to C. Six subjects elected to continue into a fourth open-label Period D, and closes received included: 350 mg (n=1), 525 mg (n=2), 450 mg (divided into 2 aliquots; n=1) and 550 mg (divided into 2 aliquots, n=2). The single doses were administered to patients under fasted conditions. The split closes were given four hours apart with patients fasting six hours prior to the first half-close and 2 hours after the second half-close, with a light snack allowed 2 hours after the first half-close. Subsequently, patients underwent extended observation, followed by a washout period. This process was repeated until each patient had received at least three closes (Compound I or placebo).
# Four subjects with stable heart failure were enrolled and randomized to receive Compound I or placebo at a dose of 400 mg (split close) or 500 mg (split close) over three periods (A-C). […]
# [1] = 175 mg, SAD Cohort 1, 175 mg (n = 8)
# [2] = 350 mg, SAD Cohort 1, 350 mg (n = 8)
# [3] = 350 mg, SAD Cohort 1, 4th dose 350 mg (n = 1)
# [4] = 400 mg, SAD Cohort 2, 400 mg split dose (n = 4)
# [5] = 450 mg, SAD Cohort 1, Split dose 450 mg (n = 1)
# [6] = 500 mg, SAD Cohort 2, 500 mg split dose (n = 4)
# [7] = 525 mg, SAD Cohort 1, 525 mg (n = 2)
# [8] = 550 mg, SAD Cohort 1, Split dose 550 mg (n = 2)
smiles,measurement,setting,value
"Cn1cc(S(=O)(=O)[C@@](C)(F)C2CCN(C(=O)Nc3ccon3)CC2)c(C(F)F)n1 [Compound I, (R)-4-(1-((3-(difluoromethyl)-1-methyl-1H-pyrazol-4-yl)sulfonyl)-1-fluoroethyl)-N-(isoxazol-3-yl)piperidine-1-carboxamide]",AUC0-∞,"SAD Cohort 1, 175 mg (n = 8)","53,800 h × ng/mL"
same,AUC0-∞,"SAD Cohort 1, 350 mg (n = 8)","103,000 h × ng/mL"
same,AUC0-∞,"SAD Cohort 1, 525 mg (n = 2)","127,000 h × ng/mL"
same,Cmax,"175 mg, 175 mg single dose, read-out: Cmax, mean (SD)",1510 ng/mL
same,Tmax,[1],4.93 h
same,AUC(0-t),[1],27 µg·h/mL
same,Cmax,"175 mg, SAD Cohort 1, 175 mg (n = 8), read-out: Cmax",1510 ng/mL
same,Cmax,"350 mg, 350 mg single dose, read-out: Cmax, mean (SD)",2760 ng/mL
same,Tmax,[2],6.15 h
same,AUC(0-t),[2],50.5 µg·h/mL
same,Cmax,"350 mg, SAD Cohort 1, 350 mg (n = 8), read-out: Cmax",2760 ng/mL
same,Tmax,[3],4.05 h
same,AUC(0-t),[3],70.1 µg·h/mL
same,Cmax,"350 mg, SAD Cohort 1, 4th dose 350 mg (n = 1), read-out: Cmax",3590 ng/mL
same,Tmax,[4],9 h
same,AUC(0-t),[4],162 µg·h/mL
same,Cmax,"400 mg, SAD Cohort 2, 400 mg split dose (n = 4), read-out: Cmax",5460 ng/mL
same,Tmax,[5],12 h
same,AUC(0-t),[5],79.2 µg·h/mL
same,Cmax,"450 mg, SAD Cohort 1, Split dose 450 mg (n = 1), read-out: Cmax",4420 ng/mL
same,Tmax,[6],8.5 h
same,AUC(0-t),[6],191 µg·h/mL
same,Cmax,"500 mg, SAD Cohort 2, 500 mg split dose (n = 4), read-out: Cmax",5880 ng/mL
same,Cmax,"525 mg, 525 mg single dose, read-out: Cmax, mean (SD)",2720 ng/mL
same,Tmax,[7],5.74 h
same,AUC(0-t),[7],54 µg·h/mL
same,Cmax,"525 mg, SAD Cohort 1, 525 mg (n = 2), read-out: Cmax",2720 ng/mL
same,Tmax,[8],8.93 h
same,AUC(0-t),[8],97.9 µg·h/mL
same,Cmax,"550 mg, SAD Cohort 1, Split dose 550 mg (n = 2), read-out: Cmax",5280 ng/mL
same,AUC(0-inf),"175 mg single dose, read-out: AUC0-∞, mean (SD)",53.8 µg·h/mL
same,AUC(0-inf),"350 mg single dose, read-out: AUC0-∞, mean (SD)",103 µg·h/mL
same,AUC(0-inf),"525 mg single dose, read-out: AUC0-∞, mean (SD)",127 µg·h/mL
same,half-life,"HFrEF patients (Cohort 1), read-out: half-life",20 to 25 h
same,half-life,"SAD Cohort 1, 175 mg (n = 8), read-out: t½ (converted)",22 h
same,half-life,"SAD Cohort 1, 350 mg (n = 8), read-out: t½ (converted)",21 h
same,half-life,"SAD Cohort 1, 525 mg (n = 2), read-out: t½ (converted)",24.7 h
same,AUC(0-inf),"SAD Cohort 1, Split dose 450 mg (n = 1), read-out: AUC0-∞",235 µg·h/mL
same,half-life,"SAD Cohort 1, Split dose 450 mg (n = 1), read-out: t½ (converted)",30.6 h
same,AUC(0-inf),"SAD Cohort 1, Split dose 550 mg (n = 2), read-out: AUC0-∞",213 µg·h/mL
same,half-life,"SAD Cohort 1, Split dose 550 mg (n = 2), read-out: t½ (converted)",21.5 h
same,AUC(0-inf),"SAD Cohort 2, 400 mg split dose (n = 4), read-out: AUC0-∞",192 µg·h/mL
same,half-life,"SAD Cohort 2, 400 mg split dose (n = 4), read-out: t½ (converted)",24.1 h
same,AUC(0-inf),"SAD Cohort 2, 500 mg split dose (n = 4), read-out: AUC0-∞",231 µg·h/mL
same,half-life,"SAD Cohort 2, 500 mg split dose (n = 4), read-out: t½ (converted)",24 h
same,"Plasma concentration, Mean",group <2000 ng/mL,1390 ng/mL
same,"Plasma concentration, Median",group <2000 ng/mL,1307 ng/mL
same,"Plasma concentration, Mean",group ≥2000 ng/mL,3823 ng/mL
same,"Plasma concentration, Median",group ≥2000 ng/mL,3795 ng/mL
